According to patent EP0488079A1, “Oxadiazolylmethylpurines, their preparation, and their pharmaceutical use” (CHINOIN Gyògyszer és Vegyészeti Termékek Gyára RT., priority 1990, dated 1992):
Where two headings read alike, the source gives them in different places.

Assays:
[1] = system: Mäusen; test: Acute oral toxicity in mice; details: p.o.
[2] = system: durch einen 15 %-igen Citronensäurespray hervorgerufenem Husten; test: Antitussive effect, cough induced in guinea pigs by 15 % citric acid spray; format: in vivo, Meerschweinchen; details: Cavia porcellus, po, 1 h, read-out: ED₅₀ (±S.D.)
From the text: Die hustenlindernde Wirkung wurde auch an Meerschweinchen untersucht, an denen die Dämpfung des durch einen 15 %-igen Citronensäurespray ausgelösten Hustens bestimmt wurde (I. Erdély, L. Tardos, Arzneim. Forsch. 1966, 617). Die hustenlindernden Mittel wurden eine Stunde vor der Messung oral verabreicht. Auch in diesem Test erwies sich die Verbindung Ia als starkes Hustenlinderungsmittel; ihre Wirkung übertraf die der Referenzsubstanzen (Tabelle 2). Tabelle 2

[3] = system: durch elektrische Reizung des Nervus laryngeus Husten; test: Antitussive effect, cough induced in cats by electrical stimulation of the Nervus laryngeus; format: in vivo, Katzen; details: for ED50: Felis catus, po, cough by electrical stimulation, p.o., p <0,001, read-out: ED₅₀ (±S.D.)
From the text: Die hustenlindernde Wirkung der Verbindung Ia wurde an Katzen untersucht, an denen durch elektrische Reizung des Nervus laryngeus Husten ausgelöst worden war (R. Domenjoz, Arch. Exp. Path. 1952, 19). Die zu untersuchenden Verbindungen wurden i.v. beziehungsweise mit Schlundsonde p.o. verabreicht. […] Tabelle 1

[4] = system: durch Histamin ausgelösten Anstiegs des Widerstands der Luftwege; test: Inhibition of the histamine-induced rise in airway resistance in cats; format: in vivo, Katzen; details: for Wirkungsmaximum: 3 µg/kg histamine i.v., 4 mg/kg substance intraduodenal, measured minute 10 to 120; for rel.Wirkungsstärke: relative to Theophyllin = 1,00
From the text: Die Hemmung des durch Histamin ausgelösten Anstiegs des Widerstands der Luftwege wurde an Katzen untersucht (M.A. Wassermann, D.W. Du Charme, Prostaglandins, 1977, 255).
Minute gemessen. […] Tabelle 4

[5] = system: isolierten glatten Luftröhrenmuskel des Meerschweinchens; test: Inhibition of the constrictor effect of histamine on isolated tracheal smooth muscle; format: cell-based, Meerschweinchen; details: against histamine, isolated guinea pig tracheal smooth muscle; for EC50: cumulative dose series, read-out: p d 2 (converted)
From the text: Am glatten Luftröhrenmuskel des Meerschweinchens ist die Wirkung der Verbindung Ia der des Theophyllins ähnlich, wenn die Wirkung gegen Histamin in einer kumulativen Dosisreihe untersucht wird (Tabelle 3). Tabelle 3

[6] = Absorption after oral administration; format: in vivo; details: without salt formation
[7] = Water solubility; format: physicochemical
[8] = system: sensibilisierten Meerschweinchen; test: Experimental asthma (anaphylaxis): airway resistance in ovalbumin-sensitised guinea pigs after intratracheal ovalbumin; format: in vivo; details: for δ (Änderung des Beatmungswiderstands): deviation from own value after dosing
Method: Die Meerschweinchen wurden durch eine einmalige Gabe von 1 µg/kg Ovalbumin i.v. sensibilisiert (Andersson, Brattsand, Br. J. Pharmacol. 1982, 139) und bekamen nach 40 Tagen die zu untersuchenden Verbindungen in einer Dosis von 10 mg/kg i.v. Die narkotisierten, muskelrelaxierten und künstlich beatmeten Tiere erhielten 3 mg/kg Ovalbumin intratracheal, und zu unterschiedlichen Zeitpunkten wurde gemessen, wie stark die zu untersuchenden Verbindungen den Anstieg des Widerstandes der Luftwege zu kompensieren vermochten.
Nach Narkose Präparation und Verabreichung eines Muskelrelaxans Beatmung 1. Messung: 5 min nach Injizierung von 10 mg/kg Wirkstoff, dann intratracheale Provokation (Minute 0) 2. Messung: 3 min nach intratrachealer Provokation 3. Messung: 6 min nach intratrachealer Provokation 4. Messung: 12 min nach intratrachealer Provokation 5. Messung: 24 min nach intratrachealer Provokation.
Die Beatmung erfolgte mit positivem Druck bei einer Frequenz von 90/min und einem Volumen von 3 ml.
Die Kontrollgruppe erhielt physiologische Kochsalzlösung. Der Wert δ ist die Abweichung von dem eigenen, nach der Verabreichung der Dosis von 10 mg/kg Wirkstoff gemessenen Wert (Eigenkontrolle).

[9] = system: Mäusen; details: in vivo
[10] = system: Zentralnervensystem und das Herz; test: Respiratory depression and side effects on central nervous system and heart; format: in vivo
[11] = 10 mg/kg i.v., 3 min after intratracheal ovalbumin
[12] = 10 mg/kg i.v., 6 min after intratracheal ovalbumin
[13] = 10 mg/kg i.v., 12 min after intratracheal ovalbumin
[14] = 10 mg/kg i.v., 24 min after intratracheal ovalbumin

With `COc1ccc2c3c1O[C@H]1[C@@H](O)C=C[C@H]4[C@@H](C2)N(C)CC[C@@]341.Cl` [Codeïn HCl] the DL₅₀ [1] was 359,2 mg/kg, the ED50 [2] was 12.8 mg/kg and the ED50 [3] was 4.33 mg/kg.

With `COc1ccc2c(c1)[C@]13CCCC[C@@H]1[C@H](C2)N(C)CC3` [Dextromethorphan HBr] the DL₅₀ [1] was 165,9 mg/kg and the ED50 [2] was 5.26 mg/kg.

In the case of `Cn1c(=O)c2[nH]cnc2n(C)c1=O` [Theophyllin, reference compound], the Wirkungsmaximum [4] is reported as 15,7, the rel.Wirkungsstärke ([4]; 4 mg/kg intraduodenal) is reported as 1,00 and the EC50 [5] is reported as 4.17 µM. The Emax [5] was 44%.

For `Cc1nc(Cn2cnc3[nH]c(=O)n(C)c(=O)c32)no1` [Verbindung Ia, 1-Methyl-7-(5-methyl-1,2,4-oxadiazol-3-yl)-methyl-3,7-dihydro-3H-purin-2,6-dion], the Resorption [6] was “ausgezeichnet und schnell resorbiert”, the Wasserlöslichkeit [7] was “mäßigen Wasserlöslichkeit” and the “Beatmungswiderstand R” value [8, 11] was 9,21±0,84 Pa/ml/s. For the same compound, the “δ (Änderung des Beatmungswiderstands)” value [8, 11] was 1,14±0,77 Pa/ml/s, the “Beatmungswiderstand R” value [8, 12] was 9,41±0,91 Pa/ml/s and the “δ (Änderung des Beatmungswiderstands)” value [8, 12] was 1,34±0,96 Pa/ml/s. The “Beatmungswiderstand R” value [8, 13] was 10,10±0,94 Pa/ml/s, the “δ (Änderung des Beatmungswiderstands)” value [8, 13] was 2,03±0,44 Pa/ml/s and the “Beatmungswiderstand R” value [8, 14] was 9,92±1.11 Pa/ml/s. For the same compound, the “δ (Änderung des Beatmungswiderstands)” value [8, 14] was 1,85±0,64 Pa/ml/s, the “Beatmungswiderstand R” value ([8]; nach 10 mg i.v. (5 min after injection, before intratracheal ovalbumin provocation)) was 8,07±0,93 Pa/ml/s and the ED50 ([2]; guinea pigs, 15 % citric acid spray, one hour after p.o. administration, p <0,001) was 3.04 mg/kg. The Wirkungsmaximum [4] was 28,2, the “Dauer der Wirkung” value ([4]; 4 mg/kg intraduodenal, compared with Theophyllin) was “hielt längere Zeit an” and the rel.Wirkungsstärke ([4]; 4 mg/kg intraduodenal) was 1,79. For the same compound, the EC50 [5] was 3.31 µM, the Emax [5] was 36% and the “therapeutischer Index” value [9] was “um mehr als eine Größenordnung besser als der der Referenzsubstanzen”. For the same compound, the DL₅₀ ([9]; mouse, po) was > 2000 mg/kg, the ED50 [3] was 3.74 mg/kg and the “hustenlindernde Wirkung” value ([3]; i.v. and p.o.) was “bedeutende hustenlindernde Wirkung”. The “Zeitdauer der Wirkung” value ([3]; i.v. and p.o., compared with reference substances) was “länger als die der Referenzsubstanzen”, the “atmungsdämpfende Wirkung” value ([10]; in contrast to the reference substances) was “keine atmungsdämpfende Wirkung” and the “unerwünschte Nebenwirkungen auf das Zentralnervensystem und das Herz” value ([10]; side effects characteristic of Theophyllin) was “nicht aufweist”.
